The target in this experiment is T1, DC-SIGN (ECD) (Homo sapiens, UniProt Q9NNX6).
T1 construct: DC-SIGN full extracellular domain (ECD, residues 70-404, Thermo Fischer Scientific); made in house
T1 sequence (Q9NNX6 70-404): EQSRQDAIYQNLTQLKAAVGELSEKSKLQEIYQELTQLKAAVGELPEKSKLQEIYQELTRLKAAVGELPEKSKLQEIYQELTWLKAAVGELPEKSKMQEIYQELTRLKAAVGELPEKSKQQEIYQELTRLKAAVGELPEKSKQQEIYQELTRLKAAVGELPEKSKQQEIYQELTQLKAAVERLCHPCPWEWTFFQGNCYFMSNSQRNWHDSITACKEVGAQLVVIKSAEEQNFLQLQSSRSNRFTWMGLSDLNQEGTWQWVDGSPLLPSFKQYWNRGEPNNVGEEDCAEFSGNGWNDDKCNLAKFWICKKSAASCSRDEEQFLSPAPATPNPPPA
The experiment in a line: competitive 19F-R2 filtered NMR experiments (spy molecule 6-F-ManαOMe). The experiment is classed as binding. Conditions: for weaker ligand relative to best binders (1b, 1c, 1d): fold loss of affinity from KI values; for Ki: non-linear least squares fitting, [6-F-ManαOMe] 400 µM, [DC-SIGN (CRDs)] 10 µM, 298 K, pH 8.0; for loss in affinity versus the trisaccharide 1: fluorinated disaccharides versus 1. From the text: In order to gain insights into the effects that the different fluorination patterns may have in the binding event, the affinities of 1b, the natural analogue of 1, as well as 1c and 1d, two partially fluorinated trisaccharides, were also estimated. (Table 2, Figure S1).
For KD estimation of 6-deoxy-6-F-Man (the spy-molecule), the free evolution delay was set to an optimized value τ=1 ms , after using relaxation dispersion experiments to assure a negligible chemical exchange contribution to R2,obs (Figure S1a). The KI of 1, 1b-d, 2, and 3 with DC-SIGN (ECD) was determined by titration experiments in a competitive fashion. Increasing amounts of the competitor molecules (compounds 1, 1b-d, 2, and 3) were added to a solution mixture of the spy molecule and the protein in each case, calculating the R2,obs of the spy molecule at each competitor concentration while the ratio [Spy-molecule]/[Protein] is fixed (40:1) (Figure S1c).
19F-R2 filtered experiments
The KD of compounds 1, 1b-d, 2 and 3 was estimated applying a 19F-R2 filtered approach. 6-F-ManαOMe, which weakly binds to DC-SIGN, was selected as the spy molecule. Relaxation rates R2 were determined employing a CPMG pulse sequence, by fitting the observed 19F signal intensity to the exponential decay curve:
ܫ(ݐ) = ܫ଴݁ି௧ோమ = ܫ଴݁ି௡ଶఛோమ (1) where ܫ(ݐ) refers to intensity at time ݐ, ܫ଴ is intensity at ݐ = 0, and ܴଶ is the transversal relaxation rate (ܴଶ = 1/ܶଶ).
In the limit of fast-exchange where the exchange contribution to the observed transversal relaxation rate ܴଶ,௢௕௦ is insignificant (Figure S1, a)), the following equations apply:
ܴଶ,௢௕௦ = ܴଶ,௙ + ൫ܴଶ,௕ − ܴଶ,௙൯݌௕ (2)
[ܲ]் + [ܮ]் + ܭ஽ − ඥ([ܲ]் + [ܮ]் + ܭ஽)ଶ − 4[ܲ]்[ܮ]் (3) where [ܲ]் and [ܮ]் are the total protein and ligand concentrarion respectively, [ܴ]ଶ,௙ and [ܴ]ଶ,௕ are the relaxation rates in the free and bound states, ݌௕ is the fraction of bound ligand and ܭ஽ the dissociation constant of the protein-ligand complex. [ܴ]ଶ,௙ of 6-F-ManαOMe was measured in absence of the lectin, and Equation 2 was used to estimate ܭ஽and [ܴ]ଶ,௕ for the […]
Then, ܭூ of compounds 1, 1b-d, 2 and 3 was measured in a competitive manner. ܴଶ,௢௕௦ of 6-F-ManαOMe (spy molecule) in solution with DC-SIGN ECD was monitored at 5 different competitor concentrations ([ܫ]) in each case with a fixed [ܲ]்/[ܮ]் ratio (Figure S1, c)), to derive ܭூ by fitting to Equation 2 with ݌௕ as defined in Equations (4) and (5) (Table 2):
݌௕ = 3ܭ + 2 cos൫ߠൗ ൯ √ܽଶ − 3ܾ − ܽ (4)
ߠ = cos ൬ ଶඥ(௔మିଷ௕)య ൰, ܽ = ܭ஽ + ܭூ + [ܮ]் + [ܫ]் − [ܲ]், ܾ = ([ܫ]் − [ܲ]்)ܭ஽ + ([ܮ]் − [ܲ]்)ܭ஽ + ܭூܭ஽, ܿ = −ܭூܭ஽[ܲ]்
Figure S1. 19F-R2 filtered experiments. a) Relaxation dispersion experiment for 6-F-ManαOMe (the spy molecule). R2,obs of the 19F nucleus is measured for different values of ωCPMG. Ligand and protein sample concentrations were: [6-F-ManαOMe] = 400 µM, [DC-SIGN (CRDs)] = 10 µM (counting concentration of CRDs, i.e, 4 CRDs per DC-SIGN ECD tetramer). For ωCPMG > 1000 s-1, there is virtually negligible exchange contribution to R2. Therefore, all the subsequent R2 filtered experiments were carried out with τCPMG = 1/ωCPMG = 1 ms. b) KD determination of 6-F-ManαOMe with DC-SIGN. R2,obs was measured for increasing amounts of [6-F-ManαOMe]/[DC-SIGN (CRDs)] (blue dots). KD and R2,b were obtained from fitting to Equation 2, which is valid in the fast-exchange regime (Rex = 0) [39a]. The predicted values at each [6-F-ManαOMe]/[DC-SIGN (CRDs)] are shown as red stars for comparison c) Titration curves showing the variation in 19F-R2,obs of the spy molecule 6-F-ManαOMe, when increasing amounts of the competitors (I) 1, 1b-d, 2 and 3 are added to a mixture [6-F-ManαOMe] = 400 µM, [DC-SIGN (CRDs)] = 10 µM. […]

What is called Ki is a dissociation constant, usually derived from enzyme kinetics or from competition with a known ligand. A low value points to tighter binding. Regarding `CO[C@H]1O[C@H](CO[C@H]2O[C@H](CO)[C@@H](O)[C@H](O)[C@@H]2F)[C@@H](O)[C@H](O[C@H]2O[C@H](CO)[C@@H](O)[C@H](O)[C@@H]2F)[C@@H]1F` [compound 1], the “weaker ligand relative to best binders (1b, 1c, 1d)” value is listed as “two-fold weaker” and the affinity, expressed as Ki, was 2.5 mM. Moreover, where the note is “corresponding to the variation in affinity of 1 versus 1b”, the “binding free energy difference” value was “ca. 1 kcal/mol”. Besides, the “variation in binding affinity” value (trifluorinated 1 versus 1b) is 2.5 fold.

Consider `CO[C@H]1O[C@H](CO)[C@@H](O)[C@H](O[C@H]2O[C@H](CO)[C@@H](O)[C@H](O)[C@@H]2F)[C@@H]1F` [compound 2], for which the “loss in affinity versus the trisaccharide 1” value is “ca. four-fold”; the “weaker ligand relative to best binders (1b, 1c, 1d)” value was “nine-”; the Ki was determined as 9.6 mM.

Consider `CO[C@H]1O[C@H](CO[C@H]2O[C@H](CO)[C@@H](O)[C@H](O)[C@@H]2F)[C@@H](O)[C@H](O)[C@@H]1F` [compound 3], for which the “loss in affinity versus the trisaccharide 1” value was “ca. two-fold”; the “weaker ligand relative to best binders (1b, 1c, 1d)” value is reported as “four-fold weaker”; the Ki is 4 mM.

The values above are taken from paper PMC7463913, “The Interaction of Fluorinated Glycomimetics with DC-SIGN: Multiple Binding Modes Disentangled by the Combination of NMR Methods and MD Simulations” (Pharmaceuticals, 2020).
